Measured values as given in US12258547B2, “Cell culture plate, method for preparing thereof and method for detecting a substance” (UPM-Kymmene Corporation, priority 2019, dated 2025).
Structures can show the parent of a compound that is named as a salt.

How the values were obtained:
[1] = system: BJ fibroblasts; assay: Leakage Test 2: 3D-printed 1.5% GrowDex barriers, BJ cells outside, chemical dosed inside, WST-1; format: cell-based, Human; conditions: 24 hrs, 450 nm
Description: (§1) For this purpose, we • decreased the cell number from the 40 000 cells/well that was used in Test 1, to 20 000 cells/well • increased the Amitriptyline concentrations from 10 and 20 μg/ml used in Test 1 to 100 and 200 μg/ml, and the SDS concentrations from 40 and 80 μg/ml used in Test 1 to 100 and 200 μg/ml. [By decreasing cell number and increasing chemical concentration it was aimed to increase the sensitivity of the test, and expect to obtain more (measurable/visible) impacts on cells]. • included following blanks: • 1.5% GrowDex barrier on poly-D-lysine coated wells in BJ cell culture medium and WST-1, but no cells • 1.5% GrowDex barrier in MEM, no coating, no cells • 1.5% GrowDex barrier in PBS, no coating, no cells • In addition, the number of measurements/well in the multipoint absorbance reading was increased from 81 to 225 reads/well in order to get denser coverage of the well.
(§2) 1.5% GrowDex barriers consisting of four layers, were printed on a 12-well plate. For more details on 3D-printing, see Appendix 1. After construction, the barriers were left to dry for 1 hr at room temperature, after which they were covered with MEM. The plate was sealed with parafilm and stored at 4° C. until used.
(§3) The next day after construction of the barriers, BJ fibroblasts were seeded: 400 μl BJ suspension (50 000 cells/ml) was seeded outside of the barriers (→altogether 20 000 BJ cells), and 100 μl BJ cell culture medium was pipetted inside of the barriers. The cells were let to grow for 24 hrs before exposure.
(§4) 2.0 mg/ml stocks were prepared from both Amitriptyline and SDS in BJ cell culture medium with 5% FBS. The stocks were first diluted 1:10 to obtain […] chemical dilution. And the 200 μg/ml chemical dilution was further diluted 1:2 to obtain 100 μg/ml chemical dilution. These dilutions, i.e. 200 and 100 μg/ml were used in the exposure.
(§5) The medium was removed carefully from both inside and outside of the barriers. 400 μl BJ cell culture medium with 5% FBS was pipetted outside of the barrier (where the cells had been seeded on previous day). 100 μl chemical dilution (SDS or Amitriptyline) was pipetted inside of the barriers. The exposure time was 24 hrs.
(§6) After 24 hrs chemical exposure, 10 μl WST-1 reagent was pipetted inside of the barriers, and 100 μl outside of the barriers. The plate was incubated for 30 min, 1.5 hrs and 2.0 hrs before absorbance measurement at 450 nm. The absorbance was measured using multipoint measurement with 225 reads/well.
(§7) In an attempt to quantify the cell viability after different treatments, the mean±STDEV absorbances were calculated using two rows of absorbances that were measured next to the outer edges of the wells. This area was assumed to be outside of the barrier.

[2] = as above; format: cell-based, Human; conditions: human; for viability at 24 h, 100 μg/ml: 100 μg/ml dosed into other side of barrier; for viability at 24 h, 100 μg/ml / viability at 24 h, 200 μg/ml: read-out: Viability % of Control; for viability at 24 h, 200 μg/ml: 200 μg/ml dosed into other side of barrier
Description: as §1, §2, §3, §4, §5, §6, §7

[3] = system: BJ cells; assay: Leakage Test 1: 3D-printed barriers, BJ cells outside, chemical dosed inside, WST-1 and microscopy; format: cell-based, Human; conditions: SDS 80 and 40 μg/ml, amitriptyline 20 and 10 μg/ml dosed inside barrier, 24 hrs
Description: It was investigated whether the 3D-printed GrowDex barriers are suitable for their intended use, i.e. to prevent the movement of cells across the barrier but allow the passage of chemicals. In order to test this, BJ cells were seeded outside of the barrier, and chemicals (SDS and Amitriptyline hydrochloride), which are known to be toxic to BJ cells, were applied inside of the barrier. After 24 hrs incubation it was evaluated microscopically whether cells had stayed outside of the barriers and whether the chemical dosed in the middle of the barrier killed the cells outside of the barrier. For quantification of cell viability, WST-1 assay was used. WST-1 assay was selected as it was used previously successfully with manually constructed barriers.
12-Well Plates: 400 μl BJ suspension (100 000 cells/ml) was seeded outside of the barriers (→altogether 40 000 BJ cells), and 100 μl BJ cell culture medium was pipetted inside of the barriers.
24-Well Plates: 200 μl of BJ suspension (100 000 cells/ml) was seeded outside of the barriers (→altogether 20 000 BJ cells), and 50 μl BJ cell culture medium was pipetted inside of the barriers. […]
The plates were incubated for 2.5 hrs before absorbance measurement at 450 nm. The absorbance was measured using multipoint measurement with 49 reads/well in 24-well plates and 81 reads/well in 12-well plates.

[4] = system: BJ cells; assay: Previous cytotoxicity data on BJ cells obtained without barriers; format: cell-based; conditions: Homo sapiens, dosed without barriers
Description: The aim was to detect dose-dependent effect by using a concentration that was expected to kill about half of the cells and a concentration two times bigger than that.

[5] = system: SH-SY5Y cells; assay: SDS permeability (indirect): cell viability observed microscopically on both sides of barrier; format: cell-based, Human; conditions: 0.4 mg/ml SDS dosed left
Description: Barrier permeability to chemicals was tested by visual inspection using 0.2% Trypan blue, by quantitative measurement using 1 mg/ml fluorescein solution, and by indirect method using sodium dodecyl sulfate (SDS), which is a toxic compound. SDS is a detergent that is known to be toxic to all cell types. […] Circular shaped barriers were prepared in 6-well plates, and straight wall shaped barriers in 24-well plates. SH-SY5Y cells were seeded to the 24-well plate in both sides of the barriers in their normal cell culture medium at the density of 325 000 cells/50 μl. HepG2 cells were seeded to the 6-well plate both inside the barrier circles and outside of them at the density of 107 500 cells/50 μl. Next day 0.4 mg/ml SDS stock was prepared and the cells were exposed to it: SH-SY5Y cells growing on the 24 well plate: 100 μl of 0.4 mg/ml SDS solution was pipetted to the left side of the barrier. 100 μl medium without SDS was pipetted to the right side of the barrier. […] The cell viability was observed microscopically.

[6] = system: HepG2 cells; assay: SDS permeability (indirect): cell viability observed microscopically inside and outside barrier circle; format: cell-based, Human; conditions: 0.4 mg/ml SDS dosed inside circle
Description: Barrier permeability to chemicals was tested by visual inspection using 0.2% Trypan blue, by quantitative measurement using 1 mg/ml fluorescein solution, and by indirect method using sodium dodecyl sulfate (SDS), which is a toxic compound. SDS is a detergent that is known to be toxic to all cell types. […] Circular shaped barriers were prepared in 6-well plates, and straight wall shaped barriers in 24-well plates. SH-SY5Y cells were seeded to the 24-well plate in both sides of the barriers in their normal cell culture medium at the density of 325 000 cells/50 μl. HepG2 cells were seeded to the 6-well plate both inside the barrier circles and outside of them at the density of 107 500 cells/50 μl. Next day 0.4 mg/ml SDS stock was prepared and the cells were exposed to it: HepG2 cells growing on the […]: 400 μl of 0.4 mg/ml SDS solution was pipetted inside the circle, and 400 μl of medium without SDS […] outside of the circle. […] The cell viability was observed microscopically.

[7] = 0.2% Trypan blue permeability through GrowDex barrier, visual inspection; format: physicochemical; conditions: 0.2% dosed to left side
Description: Barriers were prepared in 6-well (circular shaped barriers) and in 24-well (straight wall shaped barriers) plates, and allowed to dry overnight. The barriers were high enough to prevent passage and mixing of the solutions over them. All passage and mixing had to occur through the barriers. Barrier permeability to chemicals was tested by visual inspection using 0.2% Trypan blue, by quantitative measurement using 1 mg/ml fluorescein solution, and by indirect method using sodium dodecyl sulfate (SDS), which is a toxic compound. 400 μl Dulbecco's PBS/well was added to the 24-well plates. The plates were incubated for 1 hour at room temperature to moisturize the GrowDex barrier. The DPBS was removed and replaced with 100 μl 0.2% Trypan blue on the left side of the barrier, and with an equal amount of DPBS on the right side of the barrier.

[8] = 100 μg/ml dosed into other side of barrier
[9] = 200 μg/ml dosed into other side of barrier

Row | SMILES | Mean absorbance, stdev [1, 8] | Mean absorbance, stdev [1, 9] | viability at 24 h, 100 μg/ml [2] [%] | cytotoxicity at 24 h, 100 μg/ml ([2]; 100 μg/ml exposure, across barrier, read-out: reduction in BJ viability) [%] | viability at 24 h, 200 μg/ml [2] [%] | cytotoxicity at 24 h, 200 μg/ml ([2]; 200 μg/ml exposure, across barrier, read-out: reduction in BJ viability) [%] | toxicity to BJ cells across 3D-printed barrier [3] | IC50 [4] [µg/mL] | cell viability, left side of the barrier (dosed side) ([5]; 24 hours) | cell viability, right side of the barrier ([5]; 24 hours) | cell viability, both compartments ([5]; 48 hours) | cell viability inside the GrowDex circle (dosed side) ([6]; 24 hours) | cell viability outside of the circle ([6]; 24 hours) | HepG2 cells died outside of the circle ([6]; 48 hours) | distribution of blue color ([7]; after six hours) | distribution of blue color ([7]; next day)
1 | CN(C)CCC=C1c2ccccc2CCc2ccccc21 [Amitriptyline hydrochloride, 3-(10,11-dihydro-5H-dibenzo[a,d]cycloheptene-5-ylidene)-N,N-dimethylpropan-1-amine] | 0.911 ± 0.283 | 0.844 ± 0.318 | 90 | 10 | 84 | 16 | not toxic | 12 |  |  |  |  |  |  |  | 
2 | CCCCCCCCCCCCOS(=O)(=O)[O-].[Na+] [SDS, Sodium Dodecyl Sulfate] | 1.072 ± 0.322 | 1.189 ± 0.406 | 106 |  | 118 |  | not toxic | 47 | all SH-SY5Y cells in the left side of the barrier were dead | cells were dead next to the barrier, but not all over the well | all cells were dead in both compartments | all HepG2 cells were dead inside the GrowDex circle | also outside of the circle next to the GrowDex barrier | about 95% |  | 
3 | Cc1cc(-c2ccc(/N=N/c3c(S(=O)(=O)O)cc4cc(S(=O)(=O)O)cc(N)c4c3O)c(C)c2)ccc1/N=N/c1c(S(=O)(=O)O)cc2cc(S(=O)(=O)O)cc(N)c2c1O [Trypan Blue] |  |  |  |  |  |  |  |  |  |  |  |  |  |  | absorbed most of the blue color | evenly distributed on the both sides of the barrier
